For five compounds, mutagenic call results are on record in PubChem BioAssay AID1259407 (Chemical Carcinogenesis Research Information System (CCRIS), 2018).

SMILES strings stand for the structures. Activity calls are given as the source filed them. How the calls were made is not given here.

The data set concerns CCRIS mutagenicity, Ames/micronucleus/aberration tests. The experiment in a line: CCRIS mutagenicity studies.
The mark [1] stands for this setting: Test System: AMES SALMONELLA TYPHIMURIUM, Strain/Indicator: TA98, Metabolic Activation: NONE, Method: PREINCUBATION
Setting [2] is: Test System: AMES SALMONELLA TYPHIMURIUM, Strain/Indicator: TA100, Metabolic Activation: NONE, Method: PREINCUBATION

Consider `Cc1ccc2cc3c(ccc4ccccc43)c3c2c1CC3`, for which the mutagenic call reads like this: (End Point: In vivo mutagenicity, Test System: Lung, Species: Rat, Strain/Sex: Big Blue/male, Route: Intraperitoneal) “active; positive (11-fold increase in mutant frequency and an increase in transversion t”; (Test System: AMES SALMONELLA TYPHIMURIUM, Strain/Indicator: TA98, Metabolic Activation: RAT, BLADDER, S-9, PCB, Method: FLUCTUATION TEST) “inactive; negative”; (Test System: AMES SALMONELLA TYPHIMURIUM, Strain/Indicator: TA98, Metabolic Activation: RAT, LIVER, S-9, PHENOBARBITAL, Method: STANDARD PLATE) “active; positive”; (Test System: AMES SALMONELLA TYPHIMURIUM, Strain/Indicator: TA100, Metabolic Activation: MOUSE, LIVER, MICROSOMES, BENZO[E]PYRENE AND TCDD, Method: STANDARD PLATE) “active; positive”; (Test System: AMES SALMONELLA TYPHIMURIUM, Strain/Indicator: TA100, Metabolic Activation: RAT, BLADDER, S-9, PCB, Method: FLUCTUATION TEST) “active; positive”; (Test System: AMES SALMONELLA TYPHIMURIUM, Strain/Indicator: TA100, Metabolic Activation: RAT, LIVER, S-9, AROCLOR 1254, Method: STANDARD PLATE) “active; positive”. In addition, the mutagenic call is, setting by setting: (Test System: AMES SALMONELLA TYPHIMURIUM, Strain/Indicator: TA1535, Metabolic Activation: RAT, LIVER, S-9, AROCLOR 1254, Method: STANDARD PLATE) “active; positive”; (Test System: AMES SALMONELLA TYPHIMURIUM, Strain/Indicator: TA1537, Metabolic Activation: RAT, LIVER, S-9, AROCLOR 1254, Method: STANDARD PLATE) “active; positive”; (Test System: AMES SALMONELLA TYPHIMURIUM, Strain/Indicator: TA1538, Metabolic Activation: MOUSE, LIVER, S-9, PHENOBARBITAL, Method: PREINCUBATION) “active; positive”; (Test System: AMES SALMONELLA TYPHIMURIUM, Strain/Indicator: TA1538, Metabolic Activation: RAT, LIVER, S-9, AROCLOR 1254, Method: STANDARD PLATE) “active; positive”; (Test System: AMES SALMONELLA TYPHIMURIUM, Strain/Indicator: TA1538, Metabolic Activation: RAT, LIVER, S-9, PHENOBARBITAL, Method: STANDARD PLATE) “active; positive”; (Test System: Ames Salmonella typhimurium, Strain/Indicator: TA98, Metabolic Activation: None, Method: Standard plate) “active; positive (animals administered an onion (1% or 5%) diet for 1 month before the m”. Further, the mutagenic call runs as follows: (Test System: Ames Salmonella typhimurium, Strain/Indicator: TA98, Metabolic Activation: S-9, Method: Standard plate) “active; positive (animals administered an onion (1% or 5%) diet for 1 month before the m”; (Test System: Ames Salmonella typhimurium, Strain/Indicator: TA100, Metabolic Activation: None, Method: Standard plate) “active; positive (animals administered an onion (1% or 5%) diet for 1 month before the m”; (Test System: Ames Salmonella typhimurium, Strain/Indicator: TA100, Metabolic Activation: S-9, Method: Standard plate) “active; positive (animals administered an onion (1% or 5%) diet for 1 month before the m”; (Test System: CHINESE HAMSTER OVARY, Strain/Indicator: CHO-K1-BH4 (HGPRT), Metabolic Activation: RAT, LIVER, S-9, AROCLOR, Method: SUSPENSION/PLATE) “active; positive”; (Test System: CHINESE HAMSTER V-79, Strain/Indicator: V-79/6-THIOGUANINE, Metabolic Activation: RAT, LIVER, S-9, PHENOBARBITAL, Method: STANDARD PLATE) “active; positive”; (Test System: CHINESE HAMSTER V-79, Strain/Indicator: V-79/8-AZAGUANINE, Metabolic Activation: CELL-MEDIATED, Method: STANDARD PLATE) “active; positive”. Also, the mutagenic call (Test System: E. COLI, Strain/Indicator: WP2 UVRA, Metabolic Activation: HAMSTER, LIVER, S-9, AROCLOR 1254, Method: STANDARD PLATE) is “inactive; negative”; the mutagenic call (Test System: E. COLI, Strain/Indicator: WP2 UVRA, Metabolic Activation: HAMSTER, LIVER, S-9, Method: STANDARD PLATE) was “inactive; negative”; the mutagenic call (Test System: E. COLI, Strain/Indicator: WP2 UVRA, Metabolic Activation: MOUSE, LIVER, S-9, AROCLOR 1254, Method: STANDARD PLATE) is “inactive; negative”; the mutagenic call (Test System: E. COLI, Strain/Indicator: WP2 UVRA, Metabolic Activation: MOUSE, LIVER, S-9, Method: STANDARD PLATE) was “inactive; negative”; the mutagenic call (Test System: E. COLI, Strain/Indicator: WP2 UVRA, Metabolic Activation: NONE, Method: STANDARD PLATE) is “inactive; negative”; the mutagenic call (Test System: E. COLI, Strain/Indicator: WP2 UVRA, Metabolic Activation: RAT, LIVER, S-9, AROCLOR 1254, Method: STANDARD PLATE) was “inactive; negative”. For the same compound, the mutagenic call was “inactive; negative” (Test System: E. COLI, Strain/Indicator: WP2 UVRA, Metabolic Activation: RAT, LIVER, S-9, Method: STANDARD PLATE); “active; positive” (Test System: UDS HUMAN FIBROBLASTS, Strain/Indicator: THY INCORP (NON-S-PHASE), Metabolic Activation: NONE, Method: LIQUID SCINTILLATION COUNTING); “active; positive” (Test System: UDS RODENT HEPATOCYTES, Strain/Indicator: THY INCORP (NON-S-PHASE), Method: LIQUID SCINTILLATION COUNTING); “active; positive” (Test System: UDS RODENT PRIMARY CELLS, Strain/Indicator: THY INCORP (NON-S-PHASE), Metabolic Activation: NONE, Method: AUTORADIOGRAPHY).

As for `O=C=Nc1cccc2c(N=C=O)cccc12`, the mutagenic call runs as follows: under setting [1], “inactive; negative”; (Test System: AMES SALMONELLA TYPHIMURIUM, Strain/Indicator: TA98, Metabolic Activation: RAT LIVER S-9, PHENOBARBITAL AND BETA-NAPHTHOFLAVONE, Method: PREINCUBATION) “inactive; negative”; under setting [2], “inactive; negative”; (Test System: AMES SALMONELLA TYPHIMURIUM, Strain/Indicator: TA100, Metabolic Activation: RAT LIVER S-9, PHENOBARBITAL AND BETA-NAPHTHOFLAVONE, Method: PREINCUBATION) “inactive; negative”; (Test System: AMES SALMONELLA TYPHIMURIUM, Strain/Indicator: TA1535, Metabolic Activation: NONE, Method: PREINCUBATION) “inactive; negative”; (Test System: AMES SALMONELLA TYPHIMURIUM, Strain/Indicator: TA1535, Metabolic Activation: RAT LIVER S-9, PHENOBARBITAL AND BETA-NAPHTHOFLAVONE, Method: PREINCUBATION) “inactive; negative”. In addition, the mutagenic call runs as follows: (Test System: AMES SALMONELLA TYPHIMURIUM, Strain/Indicator: TA1537, Metabolic Activation: NONE, Method: PREINCUBATION) “inactive; negative”; (Test System: AMES SALMONELLA TYPHIMURIUM, Strain/Indicator: TA1537, Metabolic Activation: RAT LIVER S-9, PHENOBARBITAL AND BETA-NAPHTHOFLAVONE, Method: PREINCUBATION) “inactive; negative”; (Test System: AMES SALMONELLA TYPHIMURIUM, Strain/Indicator: TA1538, Metabolic Activation: NONE, Method: PREINCUBATION) “inactive; negative”; (Test System: AMES SALMONELLA TYPHIMURIUM, Strain/Indicator: TA1538, Metabolic Activation: RAT LIVER S-9, PHENOBARBITAL AND BETA-NAPHTHOFLAVONE, Method: PREINCUBATION) “inactive; negative”; (Test System: E.COLI, Strain/Indicator: WP2UVRA, Metabolic Activation: NONE, Method: PREINCUBATION) “inactive; negative”; (Test System: E.COLI, Strain/Indicator: WP2UVRA, Metabolic Activation: RAT LIVER S-9, PHENOBARBITAL AND BETA-NAPHTHOFLAVONE, Method: PREINCUBATION) “inactive; negative”.

Consider `Cc1cc2ncccc2c2ncn(C)c12`, for which the mutagenic call runs as follows: under setting [1], “inactive; negative”; (Test System: AMES SALMONELLA TYPHIMURIUM, Strain/Indicator: TA98, Metabolic Activation: RAT, LIVER, S-9, AROCLOR 1254, Method: PREINCUBATION) “inactive; negative”; under setting [2], “inactive; negative”; (Test System: AMES SALMONELLA TYPHIMURIUM, Strain/Indicator: TA100, Metabolic Activation: RAT, LIVER, S-9, AROCLOR 1254, Method: PREINCUBATION) “inactive; negative”.

In the case of `O=[N+]([O-])c1ccc2c(c1)sc1ccccc12`, the mutagenic call runs as follows: (Test System: AMES SALMONELLA TYPHIMURIUM, Strain/Indicator: TA98(1,8-DNP6), Metabolic Activation: NONE, Method: PREINCUBATION) “active; positive”; (Test System: AMES SALMONELLA TYPHIMURIUM, Strain/Indicator: TA98(NR), Metabolic Activation: NONE, Method: PREINCUBATION) “active; positive”; (Test System: AMES SALMONELLA TYPHIMURIUM, Strain/Indicator: TA98(NR), Metabolic Activation: RAT LIVER S-9, 3-METHYLCHOLANTHRENE (10%), Method: PREINCUBATION) “active; positive”; under setting [1], “active; positive”.

In the case of `CCCCNCCCNCCCNC(=O)c1csc(-c2csc(CCNC(=O)C(NC(=O)C(C)C(O)C(C)NC(=O)C(NC(=O)c3nc(C(CC(N)=O)NCC(N)C(N)=O)nc(N)c3C)C(OC3OC(CO)C(O)C(O)C3OC3OC(CO)C(O)C(OC(N)=O)C3O)c3cnc[nH]3)C(C)O)n2)n1` (centres undefined), under “Test System: AMES SALMONELLA TYPHIMURIUM, Strain/Indicator: TA102, Metabolic Activation: NONE, Method: PREINCUBATION”, the mutagenic call was “active; positive”.
